Assay results reported in PMC6150025, “Novel Mixed-Type Inhibitors of Protein Tyrosine Phosphatase 1B. Kinetic and Computational Studies” (Molecules : A Journal of Synthetic Chemistry and Natural …, 2017).
Values belong to the compound of their own block, whether it stands above or below them.

Molecular target: T1, PTP1B (Homo sapiens, UniProt P18031)
T1 construct: encodes for PTP1B (residues 1–321); inferred from the pET28A vector, NdeI/BamHI cloning and Ni-agarose purification) (N); made in house; host or cells: E. coli BLR
T1 sequence (P18031 1-321): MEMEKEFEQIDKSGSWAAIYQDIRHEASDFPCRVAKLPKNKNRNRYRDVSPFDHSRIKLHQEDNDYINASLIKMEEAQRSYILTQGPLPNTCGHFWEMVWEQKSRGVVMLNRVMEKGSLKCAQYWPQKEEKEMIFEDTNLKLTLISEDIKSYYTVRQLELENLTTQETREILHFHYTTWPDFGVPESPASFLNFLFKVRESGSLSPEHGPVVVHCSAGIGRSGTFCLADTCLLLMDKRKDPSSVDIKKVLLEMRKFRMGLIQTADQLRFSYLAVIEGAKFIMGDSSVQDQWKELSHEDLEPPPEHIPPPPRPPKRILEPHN
Test: PTP1B enzymatic inhibition assay (pNPP substrate)
Assay type: biochemical
Conditions: for Ki: Lineweaver-Burk analysis, mixed type model; for Inhibition Type: Lineweaver-Burk plots; for IC50: curves at different concentration of each compound; for Vmax / Km: from fit of the kinetic data for each inhibitor; for α: mixed type inhibition model; for Km: pNPP; for % Inhibition: Table S1, values marked a: tested at 100 µM due to solubility problems
Experimental: The PTP1B activity was measured based on the Goldstein method. The assay was performed with a final reaction volume of 500 µL in HEPES buffer (50 mM HEPES, 1mM DTT, 2 mM EDTA and 150 mM NaCl, pH 7.0), DMSO (10%) and p-nitrophenol phosphate (pNPP) as substrate (50 mM), the reaction was started with the PTP1B (1.5 µg/mL). After 30 min of incubation at 37 °C, the reaction was stopped by the addition of 500 µL of NaOH 5N reading the absorbance at 405 nm. The number of hydrolyzed moles of pNPP was determined using the molar extinction coefficient of the product pNP (18,500 M^−1 cm^−1).
Inhibition assays were performed under the above described conditions, adding to the reaction each one of the molecules at a final concentration of 200 µM. The concentration that inhibits 50% (IC50) of the PTP1B activity was determined through curves at different concentration of each compound, adjusting the data to the equation reported elsewhere. The inhibition type and constant were obtained by the measurement of the initial velocities of hydrolysis varying the substrate concentration in a range of 2–30 µM, in absence or presence of fixed concentrations of each inhibitor. For compound 1 the concentrations used were 3, 6, 10 and 20 µM; in the case of compound 2 were 2, 4, 6, 8, and 10 µM; and for compound 3 were 20, 50, 70 and 90 µM. The experimental data were analyzed through the Lineweaver-Burk plot using the software Sigma Plot V12.3 (Systat Software, Inc., San Jose, CA, USA).

[1] = 200 µM compound, pNPP 50 mM, 30 min, 37 °C

- inhibition at 200 µM [1]: 100%
- Ki: 5.2 µM
- Inhibition Type: Mixed
- IC50: 7.5 µM
- Vmax: 8.8 µmol/min/mg
- α: 1.4
- Km: 6.7 mM
SMILES: CSc1nc2cc(Cl)c(C(=O)Nc3nc4cc(Oc5cccc(Cl)c5Cl)c(Cl)cc4[nH]3)cc2n1C [Compound 1, 5-Chloro-N-[6-chloro-5-(2,3-dichlorophenoxy)-1H-benzimidazol-2-yl]-1-methyl-2-(methylthio)-1H-benz-imidazole-6-carboxamide]

- inhibition at 200 µM [1]: 84%
SMILES: CCCc1cc(=O)oc2cc(OC(C)C(=O)NNS(=O)(=O)c3cccc(C(F)(F)F)c3)ccc12 (stereo not shown) [Compound 6, N′1-{2-[(2-oxo-4-propyl-2H-chromen-7-yl)oxy]propanoyl}-3-(trifluoromethyl)benzene-1-sulfonohydrazide]

- % Inhibition (200 µM) (Table S1, 200 µM compound): 37%
SMILES: O=C1COc2cc(O)ccc21 [6-hydroxy-2,3-dihydrobenzo[b]furan-3-one]

- inhibition at 200 µM [1]: 88%
SMILES: O=C(CSc1nnnn1-c1ccc(O)cc1)c1ccc2c(c1)OCO2 [Compound 4, 1-(1,3-benzodioxol-5-yl)-2-{[1-(4-hydroxyphenyl)-1H-1,2,3,4-tetraazol-5-yl]sulfanyl}-1-ethanone]

- inhibition at 200 µM (Table S1, 200 µM compound): 44%
SMILES: OCc1ccccc1N1CCOCC1 [(2-morpholinophenyl)methanol]

- inhibition at 200 µM [1]: 85%
SMILES: CN(C)S(=O)(=O)Oc1ccc(-c2noc(-c3ccc(Oc4cc(Cl)cc(Cl)c4)o3)n2)cc1 [Compound 5, 4-{5-[5-(3,5-dichlorophenoxy)-2-furyl]-1,2,4-oxadiazol-3-yl}phenyl-N,N-dimethylsulfamate]

- inhibition at 200 µM [1]: 92%
- Ki: 41.3 µM
- Inhibition Type: Mixed
- IC50: 31.3 µM
- Vmax: 10 µmol/min/mg
- α: 3.3
- Km: 4.1 mM
SMILES: O=C(Nc1nc2cc(Oc3cccc(Cl)c3Cl)c(Cl)cc2[nH]1)C(F)(F)F [Compound 3, N-[6-Chloro-5-(2,3-dichlorophenoxy)-1H-benzimidazol-2-yl]-2,2,2-trifluoroacetamide]

SMILES: CSc1nc2cc(C(=O)N/N=C/c3ccc([N+](=O)[O-])o3)ccc2n1C [1-methyl-2-(methylsulfanyl)-N'-[(E)-(5-nitrofuran-2-yl)methylidene]-1H-benzimidazole-5-carbohydrazide]
- % Inhibition (200 µM) (Table S1, 200 µM compound): 34%

SMILES: O=S(=O)(c1ccc(NC(=S)Nc2ccc3c(c2)OCO3)cc1)N1CCCCC1 [N-(1,3-benzodioxol-5-yl)-N'-[4-(piperidinosulfonyl)phenyl]thiourea]
- % Inhibition (200 µM) (Table S1, 200 µM compound): 32%

- % Inhibition (200 µM) (Table S1, 200 µM compound): 63%
SMILES: COc1cc(C=NNC(=O)CSCc2c(C)c(C)c(C)c(C)c2C)cc(OC)c1OC [N'1-(3,4,5-trimethoxybenzylidene)-2-[(2,3,4,5,6-pentamethylbenzyl)thio]ethanohydrazide]

- % Inhibition (200 µM) (Table S1, 200 µM compound): 38%
SMILES: CN(C)S(=O)(=O)Oc1ccc(-c2noc(-c3ccc(OC(F)(F)F)cc3)n2)cc1 [N,N-dimethyl(4-{5-[4-(trifluoromethoxy)phenyl]-1,2,4-oxadiazol-3-yl}phenyl)sulfamate]

- % Inhibition (200 µM) (Table S1, 200 µM compound): 63%
SMILES: O=C(Nc1ccc(COc2ccccc2)cc1)Oc1ccccc1N1CCOCC1 [2-morpholinophenyl N-[4-(phenoxymethyl)phenyl]carbamate]

- % Inhibition (200 µM) (Table S1, 200 µM compound): 54%
SMILES: Cn1c(SCC(=O)Nc2nccs2)nc2cc(Oc3cccc4ccccc34)c(Cl)cc21 [2-({6-chloro-1-methyl-5-[(naphthalen-1-yl)oxy]-1H-benzimidazol-2-yl}sulfanyl)-N-(1,3-thiazol-2-yl)acetamide]

SMILES: CSc1nc2cc(C(=O)O)ccc2n1C [1-methyl-2-(methylsulfanyl)-1H-benzimidazole-5-carboxylic acid]
- % Inhibition (200 µM) (Table S1, 200 µM compound): 33%

- % Inhibition (200 µM) (Table S1, 200 µM compound): 64%
SMILES: COC(=O)c1cccc2nc(Cc3ccc([N+](=O)[O-])cc3)sc12 [methyl 2-[(4-nitrophenyl)methyl]-1,3-benzothiazole-7-carboxylate]

SMILES: COC(=O)c1cc2nc(SCC(=O)Nc3ncc([N+](=O)[O-])s3)[nH]c2cc1Cl [methyl 6-chloro-2-({2-[(5-nitro-1,3-thiazol-2-yl)amino]-2-oxoethyl}sulfanyl)-1H-benzimidazole-5-carboxylate]
- % Inhibition (200 µM) (Table S1, 200 µM compound): 63%

- % Inhibition (200 µM) (Table S1, 200 µM compound): 64%
SMILES: O=C(CSc1nnc(-c2cc(OCC(F)(F)F)ccc2OCC(F)(F)F)o1)c1ccccc1 [2-({5-[2,5-di(2,2,2-trifluoroethoxy)phenyl]-1,3,4-oxadiazol-2-yl}thio)-1-phenylethan-1-one]

- % Inhibition (200 µM) (Table S1, 200 µM compound): 50%
SMILES: COC(=O)c1cc(S(=O)(=O)NCC2CN(Cc3ccccc3)CN(Cc3ccccc3)C2)oc1C [methyl 5-({[(1,3-dibenzylhexahydro-5-pyrimidinyl)methyl]amino}sulfonyl)-2-methyl-3-furoate]

- % Inhibition: 63%
SMILES: Cn1c(SCC(=O)Nc2nccs2)nc2cc(Cl)c(Oc3cccc4ccccc34)cc21 [2-({5-chloro-1-methyl-6-[(naphthalen-1-yl)oxy]-1H-benzimidazol-2-yl}sulfanyl)-N-(1,3-thiazol-2-yl)acetamide]

SMILES: Cc1nc2cc(C(=O)N/N=C/c3ccc([N+](=O)[O-])o3)ccc2[nH]1 [2-methyl-N'-[(E)-(5-nitrofuran-2-yl)methylidene]-1H-benzimidazole-5-carbohydrazide]
- % Inhibition: 54%

SMILES: CSc1nc2cc(C(=O)Nc3nc4cc(Oc5cccc(Cl)c5Cl)c(Cl)cc4[nH]3)ccc2n1C [N-[6-chloro-5-(2,3-dichlorophenoxy)-1H-benzimidazol-2-yl]-1-methyl-2-(methylsulfanyl)-1H-benzimidazole-5-carboxamide]
- % Inhibition (200 µM) (Table S1, 200 µM compound): 42%

- inhibition at 200 µM [1]: 65%
SMILES: C[S+]([O-])c1nc2cc(Cl)c(Oc3cccc4ccccc34)cc2[nH]1 (stereo not shown) [Compound 10]

- inhibition at 200 µM [1]: 80%
SMILES: COc1cc2nc(SCC(=O)Nc3ccc(F)c(Cl)c3)n(-c3ccccc3)c(=O)c2cc1OC [Compound 7, N-(3-chloro-4-fluorophenyl)-2-[(6,7-dimethoxy-4-oxo-3-phenyl-3,4-dihydro-2-quinazolinyl)sulfanyl]acetamide]

SMILES: O=C(NNS(=O)(=O)c1cc(C(F)(F)F)cc(C(F)(F)F)c1)c1cnn(-c2ccccc2)c1C(F)(F)F [N'1-{[1-phenyl-5-(trifluoromethyl)-1H-pyrazol-4-yl]carbonyl}-3,5-di(trifluoromethyl)benzene-1-sulfonohydrazide]
- % Inhibition (200 µM) (Table S1, 200 µM compound): 45%

- inhibition at 200 µM [1]: 74%
- inhibition at 200 µM (Table S1, 200 µM compound): 64%
SMILES: CCCCCc1ccc(S(=O)(=O)Nc2ncccc2OCc2cc(F)cc(F)c2)cc1 [Compound 8, N-{3-[(3,5-difluorobenzyl)oxy]pyridin-2-yl}-4-pentylbenzenesulfonamide]

- % Inhibition (200 µM) (Table S1, 200 µM compound): 34%
SMILES: O=C(O)c1csc(-c2ccc(C(F)(F)F)cc2)n1 [2-[4-(trifluoromethyl)phenyl]-1,3-thiazole-4-carboxylic acid]

- % Inhibition (200 µM) (Table S1, 200 µM compound): 54%
SMILES: CC1C(=NO)CC(c2ccc([N+](=O)[O-])cc2)NC1c1ccc([N+](=O)[O-])cc1 (stereo not shown) [3-methyl-2,6-bis(4-nitrophenyl)tetrahydropyridin-4(1H)-one oxime]

SMILES: Cn1c(SCCn2ccnc2)nc2ccc(Cl)cc21 [6-chloro-2-{[2-(1H-imidazol-1-yl)ethyl]sulfanyl}-1-methyl-1H-benzimidazole]
- % Inhibition (200 µM) (Table S1, 200 µM compound): 32%

- % Inhibition (200 µM) (Table S1, 200 µM compound): 42%
SMILES: Cc1ccc(S(=O)(=O)CCSc2n[nH]c(=O)n2-c2ccc(OCc3ccccc3)cc2)cc1 [4-[4-(benzyloxy)phenyl]-5-({2-[(4-methylphenyl)sulfonyl]ethyl}sulfanyl)-2,4-dihydro-3H-1,2,4-triazol-3-one]

SMILES: Cc1cc(-c2nn(C)c(=O)c3ccccc23)cc(C)c1OCC(=O)NNC(=O)Nc1ccccc1 [N1-phenyl-2-{2-[2,6-dimethyl-4-(3-methyl-4-oxo-3,4-dihydrophthalazin-1-yl)phenoxy]acetyl}hydrazine-1-carboxamide]
- % Inhibition (200 µM) (Table S1, 200 µM compound): 52%

- % Inhibition (200 µM) (Table S1, 200 µM compound): 56%
SMILES: COC(=O)c1c(Cl)ccc2nc(Cc3ccc([N+](=O)[O-])cc3)sc12 [methyl 6-chloro-2-[(4-nitrophenyl)methyl]-1,3-benzothiazole-7-carboxylate]

SMILES: CSc1nc2cc(C(=O)N/N=C/c3ccc([N+](=O)[O-])o3)ccc2[nH]1 [2-(methylsulfanyl)-N'-[(E)-(5-nitrofuran-2-yl)methylidene]-1H-benzimidazole-5-carbohydrazide]
- % Inhibition: 50%

- inhibition at 200 µM (Table S1, 200 µM compound): 37%
SMILES: O=C(O)c1ccccc1N1CCOCC1 [2-morpholinobenzoic acid]
